The numbers were not newly measured in patent publication US20200085832A1, “DEUTERATED ANALOGS OF AN ORGANIC COMPOUND” (Agios Pharmaceuticals, Inc., priority 2019, published 2020), which cites them from elsewhere.

Molecules are shown by their SMILES.

One data set concerns mutant IDH2. The conditions noted are these: biochemical and cellular assays.
The test system of the next data set is mutant IDH1. The conditions noted are these: biochemical and cellular assays.
Another data set deals with mutant IDH2 (mIDH2). The conditions noted are these: D. Rohle et al. Science 340:626-630 (2013).
A further data set deals with mIDH1-driven gliomas. The conditions noted are these: some model systems.
The test system of a further data set is mutant IDH1 (mIDH1). The conditions noted are these: D. Rohle et al. Science 340:626-630 (2013).

On to `C[C@@H](Nc1nc(N[C@H](C)C(F)(F)F)nc(-c2cccc(Cl)n2)n1)C(F)(F)F` [Compound X, 6-(6-chloropyridin-2-yl)-N^2,N^4-bis((R)-1,1,1-trifluoropropan-2-yl)-1,3,5-triazine-2,4-diamine], for which the “inhibitor of mutant IDH2 protein” value with mutant IDH2 is “inhibitor of mutant IDH1 and IDH2 proteins”. For the same compound, the “inhibitor of mutant IDH1 protein” value in the data set with mutant IDH1 was “inhibitor of mutant IDH1 and IDH2 proteins”.
For `Cc1ccccc1C(C(=O)NC1CCCCC1)N(C(=O)Cn1ccnc1C)c1cccc(F)c1` (centres unmarked) [AGI-5198], in the data set on mutant IDH2 (mIDH2), the “inhibition of mutant IDH2” value was “not mutant IDH2 (mIDH2)”. Also, the “growth of mIDH1-driven gliomas” value with mIDH1-driven gliomas was “repress growth of mIDH1-driven gliomas”. Moreover, the “inhibition of mutant IDH1” value in the data set with mutant IDH1 (mIDH1) is on record as “inhibit mutant IDH1 (mIDH1)”.
